Source: patent US12655116B2, “Substituted isophthalic acid diamides” (Bayer Aktiengesellschaft, priority 2020, dated 2026)

Experiments:
MATIN [1] = experiment: Pre-emergence herbicidal action against MATIN; type: in vivo, Matricaria inodora
Outline: (§1)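 Pre-emergence soil-surface spray of formulated compound (WP or EC; 600 to 800 l/ha; 0.2% wetting agent) over seeds sown in sandy loam. After 3 weeks under greenhouse conditions, damage is estimated visually in percent against untreated plants.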

PHBPU [2] = experiment: Pre-emergence herbicidal action against PHBPU; type: in vivo, Pharbitis purpurea; settings: dosage 80 g/ha
Outline: as §1

AMARE [3] = experiment: Pre-emergence herbicidal action against AMARE; type: in vivo, Amaranthus retroflexus
Outline: as §1

ABUTH [4] = experiment: Post-emergence herbicidal action against ABUTH; type: in vivo, Abutilon theophrasti; settings: visual assessment about 3 weeks after treatment vs untreated controls
Outline: (§2)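 Spray, one-leaf stage: WP or EC compound in water, 600–800 l/ha, 0.2% wetting agent. Plants held about 3 weeks in the greenhouse, then visually rated in percent of kill compared with untreated controls.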

AVEFA [5] = experiment: Pre-emergence herbicidal action against AVEFA; type: in vivo, Avena fatua; settings: 80 g/ha, pre-emergence
Outline: as §1

ECHCG [6] = experiment: Pre-emergence herbicidal action against ECHCG; type: in vivo, Echinochloa crus-galli; settings: 80 g/ha
Outline: as §1

DIGSA [7] = experiment: Pre-emergence herbicidal action against DIGSA; type: in vivo, Digitaria sanguinalis; settings: Digitaria sanguinalis, 504 h
Outline: as §1

VIOTR [8] = experiment: Post-emergence herbicidal action against VIOTR; type: in vivo, Viola tricolor
Outline: as §2

DIGSA [9] = experiment: Post-emergence herbicidal action against DIGSA; type: in vivo, Digitaria sanguinalis
Outline: as §2

AMARE [10] = experiment: Post-emergence herbicidal action against AMARE; type: in vivo, Amaranthus retroflexus; settings: 20 g/ha, visual assessment about 3 weeks after treatment, 100% = plants have died, 0% = like control plants
Outline: as §2

ECHCG [11] = experiment: Post-emergence herbicidal action against ECHCG; type: in vivo, Echinochloa crus-galli
Outline: as §2

AVEFA [12] = experiment: Post-emergence herbicidal action against AVEFA; type: in vivo, Avena fatua; settings: 20 g/ha, visual assessment about 3 weeks after treatment, 100% = plants have died, 0% = like control plants
Outline: as §2

ALOMY [13] = experiment: Post-emergence herbicidal action against ALOMY; type: in vivo, Alopecurus myosuroides; settings: dosage 20 g/ha, visual assessment about 3 weeks after treatment vs untreated controls
Outline: as §2

ALOMY [14] = experiment: Pre-emergence herbicidal action against ALOMY; type: in vivo, Alopecurus myosuroides; settings: pre-emergence
Outline: as §1

SETVI [15] = experiment: Pre-emergence herbicidal action against SETVI; type: in vivo, Setaria viridis
Outline: as §1

MATIN [16] = experiment: Post-emergence herbicidal action against MATIN; type: in vivo, Matricaria inodora
Outline: as §2

VIOTR [17] = experiment: Pre-emergence herbicidal action against VIOTR; type: in vivo, Viola tricolor
Outline: as §1

POLCO = experiment: Pre-emergence herbicidal action against POLCO; type: in vivo, Polygonum convolvulus; settings: dosage 80 g/ha
Outline: as §1

ABUTH [18] = experiment: Pre-emergence herbicidal action against ABUTH; type: in vivo, Abutilon theophrasti
Outline: as §1

PHBPU [19] = experiment: Post-emergence herbicidal action against PHBPU; type: in vivo, Pharbitis purpurea
Outline: as §2

SETVI [20] = experiment: Post-emergence herbicidal action against SETVI; type: in vivo, Setaria viridis
Outline: as §2

VERPE = experiment: Pre-emergence herbicidal action against VERPE; type: in vivo, Veronica persica; settings: dosage 80 g/ha
Outline: as §1

[21] = Tripleurospermum inodorum, 504 h, dosage 20 g/ha
[22] = Setaria viridis, 504 h, dosage 20 g/ha
[23] = 80 g/ha, scored visually after 3 weeks vs untreated controls (100% = plants have died, 0% = like control plants)

## CCn1nnnc1NC(=O)c1ccc(C(F)(F)F)c(C(=O)NC2CC2)c1OC [Example 2-58]
MATIN [1]; [21]
  pest or weed control at 20 g/ha: 100%
MATIN [1]; Tripleurospermum inodorum, 504 h, dosage 80 g/ha
  pest or weed control at 80 g/ha: 100%
PHBPU [2]; Ipomoea purpurea, 504 h
  pest or weed control at 80 g/ha: 90%
AMARE [3]; Amaranthus retroflexus, 504 h, 20 g/ha, scored visually after 3 weeks vs untreated controls, 100% = plants have died, 0% = like control plants
  pest or weed control at 20 g/ha: 100%
AMARE [3]; Amaranthus retroflexus, 504 h, 80 g/ha, scored visually after 3 weeks vs untreated controls, 100% = plants have died, 0% = like control plants
  pest or weed control at 80 g/ha: 100%
ABUTH [4]; Abutilon theophrasti, 504 h, dosage 5 g/ha
  pest or weed control at 5 g/ha: 100%
ABUTH [4]; Abutilon theophrasti, 504 h, dosage 20 g/ha
  pest or weed control at 20 g/ha: 100%
AVEFA [5]; Avena fatua, 504 h
  pest or weed control at 80 g/ha: 90%
ECHCG [6]; Echinochloa crus-galli, 504 h
  pest or weed control at 80 g/ha: 100%
DIGSA [7]; dosage 20 g/ha
  pest or weed control at 20 g/ha: 100%
DIGSA [7]; dosage 80 g/ha
  pest or weed control at 80 g/ha: 100%
VIOTR [8]; Viola tricolor, 504 h, 5 g/ha
  pest or weed control at 5 g/ha: 100%
VIOTR [8]; Viola tricolor, 504 h, 20 g/ha
  pest or weed control at 20 g/ha: 100%
DIGSA [9]; Digitaria sanguinalis, 504 h, 5 g/ha
  pest or weed control at 5 g/ha: 100%
DIGSA [9]; Digitaria sanguinalis, 504 h, 20 g/ha
  pest or weed control at 20 g/ha: 100%
AMARE [10]; Amaranthus retroflexus, 504 h
  pest or weed control at 20 g/ha: 100%
ECHCG [11]; Echinochloa crus-galli, 504 h, dosage 5 g/ha
  pest or weed control at 5 g/ha: 90%
ECHCG [11]; Echinochloa crus-galli, 504 h, dosage 20 g/ha
  pest or weed control at 20 g/ha: 100%
AVEFA [12]; Avena fatua, 504 h
  pest or weed control at 20 g/ha: 80%
ALOMY [13]; Alopecurus myosuroides, 504 h
  pest or weed control at 20 g/ha: 80%
ALOMY [14]; Alopecurus myosuroides, 504 h, 80 g/ha, scored visually after 3 weeks vs untreated controls (100% = plants have died, 0% = like control plants)
  pest or weed control at 80 g/ha: 100%
ALOMY [14]; Alopecurus myosuroides, 504 h, 20 g/ha, scored visually after 3 weeks, 100% = plants have died, 0% = like control plants
  pest or weed control at 20 g/ha: 90%
SETVI [15]; [22]
  pest or weed control at 20 g/ha: 100%
SETVI [15]; Setaria viridis, 504 h, dosage 80 g/ha
  pest or weed control at 80 g/ha: 100%
MATIN [16]; Tripleurospermum inodorum, 504 h, dosage 5 g/ha
  pest or weed control at 5 g/ha: 80%
MATIN [16]; [21]
  pest or weed control at 20 g/ha: 90%
VIOTR [17]; Viola tricolor, 504 h, dosage 20 g/ha
  pest or weed control at 20 g/ha: 100%
VIOTR [17]; Viola tricolor, 504 h, dosage 80 g/ha
  pest or weed control at 80 g/ha: 100%
POLCO; Fallopia convolvulus, 504 h
  pest or weed control at 80 g/ha: 80%
ABUTH [18]; Abutilon theophrasti, 504 h, 80 g/ha, scored visually after 3 weeks vs untreated controls (100% = plants have died, 0% = like control plants)
  pest or weed control at 80 g/ha: 100%
ABUTH [18]; Abutilon theophrasti, 504 h, dosage 20 g/ha, scored visually after 3 weeks vs untreated controls, 100% = plants have died, 0% = like control plants, read-out: Pre-emergence action against ABUTH (herbicidal activity in percent)
  pest or weed control at 20 g/ha: 100%
PHBPU [19]; Ipomoea purpurea, 504 h, dosage 20 g/ha
  pest or weed control at 20 g/ha: 90%
SETVI [20]; Setaria viridis, 504 h, dosage 5 g/ha
  pest or weed control at 5 g/ha: 90%
SETVI [20]; [22]
  pest or weed control at 20 g/ha: 100%

## CCNC(=O)c1c(C(F)(F)F)ccc(C(=O)Nc2nnnn2CC)c1CC [Example 2-272]
MATIN [1]; dosage 20 g/ha
  Pre-emergence action against MATIN in %: 100%
MATIN [1]; dosage 80 g/ha
  Pre-emergence action against MATIN in %: 100%
PHBPU [2]
  Pre-emergence action against PHBPU in %: 80%
AMARE [3]; 20 g/ha, scored visually after 3 weeks vs untreated controls, 100% = plants have died, 0% = like control plants
  Pre-emergence action against AMARE in %: 100%
AMARE [3]; [23]
  Pre-emergence action against AMARE in %: 100%
ABUTH [4]; dosage 5 g/ha
  Post-emergence action against ABUTH in %: 90%
ABUTH [4]; dosage 20 g/ha
  Post-emergence action against ABUTH in %: 90%
AVEFA [5]
  Pre-emergence action against AVEFA in %: 80%
ECHCG [6]
  Pre-emergence action against ECHCG in %: 100%
VERPE
  Pre-emergence action against VERPE in %: 90%
VIOTR [8]; 20 g/ha
  Post-emergence action against VIOTR in %: 80%
DIGSA [9]; 5 g/ha
  Post-emergence action against DIGSA in %: 90%
DIGSA [9]; 20 g/ha
  Post-emergence action against DIGSA: 90%
AMARE [10]
  Post-emergence action at 20 g/ha against AMARE in %: 100%
ECHCG [11]; dosage 5 g/ha
  Post-emergence action against ECHCG in %: 80%
ECHCG [11]; dosage 20 g/ha
  Post-emergence action against ECHCG in %: 90%
AVEFA [12]
  Post-emergence action at 20 g/ha against AVEFA in %: 80%
ALOMY [13]
  Post-emergence action against ALOMY in %: 90%
ALOMY [14]; [23]
  Pre-emergence action against ALOMY (herbicidal activity): 90%
SETVI [15]; dosage 80 g/ha
  Pre-emergence action against SETVI in %: 100%
MATIN [16]; dosage 5 g/ha
  Post-emergence action against MATIN in %: 80%
MATIN [16]; dosage 20 g/ha
  Post-emergence action against MATIN in %: 80%
VIOTR [17]; dosage 20 g/ha
  Pre-emergence action against VIOTR in %: 90%
VIOTR [17]; dosage 80 g/ha
  Pre-emergence action against VIOTR in %: 100%
POLCO
  Pre-emergence action against POLCO in %: 80%
ABUTH [18]; [23]
  Pre-emergence action against ABUTH (herbicidal activity): 100%
ABUTH [18]; dosage 20 g/ha, scored visually after 3 weeks vs untreated controls, 100% = plants have died, 0% = like control plants
  Pre-emergence action against ABUTH (herbicidal activity in percent): 100%
PHBPU [19]; dosage 5 g/ha
  Post-emergence action against PHBPU in %: 90%
PHBPU [19]; dosage 20 g/ha
  Post-emergence action against PHBPU in %: 100%
SETVI [20]; dosage 5 g/ha
  Post-emergence action against SETVI in %: 90%
SETVI [20]; dosage 20 g/ha
  Post-emergence action against SETVI in %: 100%
